“Also recorded” adds a separate entry of the source. Non-standard residues stand in square brackets, D forms with d. No end group written: not given here. *: point of attachment. Lauroyl = CCCCCCCCCCCC(=O)*

Test [1] in a line: Food intake of fasted mice after injection of peptide. The test is classed as in vivo, C57BL/6 mice. The method, then:
Animals: All animal procedures were approved by the British Home Office Animals (Scientific Procedures) Act 1986 (Project License number 70/5516). Male C57BL/6 mice and male Wistar rats were maintained in individual cages under controlled temperature (21-23 °C) with ad libitum access to standard chow (RM1 diet, SDS Ltd, Witham, Essex, UK) and to water. The light cycle was 14 hours light and 10 hours dark with 'dawn' at 07:00, lights full on at 07:30, 'dusk' at 21:00 with lights off at 21:30. These times were fixed in the animal facility.
All animals were handled almost daily for on average nine days prior to the first study. During the acclimatization period, each animal received two saline injections at least two days apart in order to further acclimatize to the procedure on the study days.
Intra-peritoneal (IP) injections: IP injections were administered to mice via a 0.5 ml syringe with a 29-gauge needle (maximum injection volume 0.1 ml). Maximum volume administered IP was 0.1 ml.
Study protocol: C57BL/6 mice (20-35 g) were injected with the peptide under investigation following a 20-hour fast Wistar rats were injected following a 24-hour fast. A pre-weighed quantity of chow was presented immediately after injection. The remaining food was measured at regular time intervals (e.g. 1, 2, 3,4, 6, 8, 24 and 48 hours following injection) and food intake calculated.

The conditions of test [2]: humans; 1.8 mg sc three times daily for 28 days; cited from earlier work.
The conditions of test [3]: humans; intravenously infused; cited from earlier work.
The conditions of test [4]: rats, cited from earlier work.
Where [5] appears, read: Example 1, 2700 nmol/kg, intervals 0-32 h after injection, vs saline and oxm.

Regarding “D-His1,Ala2,Lys33,Ala38,Ala39,Lys40-lauroyl-oxm(ex15-23)(ex27-33) ([dH]AQGTFTSDYSKYLEEEAVRLFIQWLKNGGPSKNNIAAAK(Lauroyl))”, the food intake entry in test [1] (Example 54, 10 nmol/kg) is given as “exception”.

With “Oxyntomodulin (HSQGTFTSDYSKYLDSRRAQDFVQWLMNTKRNRNNIA) [oxm, 37 amino acid peptide member of the glucagon superfamily]”, in test [2], the body weight result is recorded as “significant reduction of body weight”. Besides, the food intake result in test [1] (Example 5, 2700nmol/kg, 0-4 h, vs oxm and saline) is “reduced food intake as expected”; in test [1] (Example 7, 1000 nmol/kg, 0-24 h), “did not quite reach statistical significance”. In test [1] (Example 9, food intake during the first hour after injection, activity relative to oxm (1400 nmol/kg)), the “Multiples of food inhibition Factor” value was found to be 1. In addition, in test [3], the appetite result is “effective appetite suppressant”. Moreover, the weight gain result in test [4] (chronic central administration) is “reduced weight gain”. Also, the “refeeding after a fast” value in test [4] (intracerebroventricular and injection into paraventricular and arcuate nuclei) was “inhibits refeeding after a fast”. Also, the “body weight gain and adiposity” value in test [4] (twice daily peripheral injections) was “reduced body weight gain and adiposity”.

As to “DHis2-Ser2-Asp3-oxm(ex15-23)(ex27-33)-Lys33-Ala38,39-Glu40,41-Lys42-Lauroyl ([dH]SDGTFTSDYSKYLEEEAVRLFIQWLKNGGPSKNNIAAAEEK(Lauroyl)) [23/104]”, in test [1] (Example 57, 6 or 20 nmol/kg), the food intake entry was “markedly decreased cumulative food intake in comparison to the saline control”.

For “oxm(xx15-18): human oxm with 4 amino acids at positions 15-18 replaced by substitute sequence (HSQGTFTSDYSKYLEEEAAQDFVQWLMNTKRNRNNIA)”, in test [1] (setting [5]), the food intake entry is “increased and prolonged inhibition of food intake compared to both saline and oxm”.

In the case of “oxm(xx15-21): human oxm with residues 15-21 replaced by corresponding exendin-4 residues (HSQGTFTSDYSKYLEEEAVRLFVQWLMNTKRNRNNIA)”, the food intake entry in test [1] (setting [5]) is “greater and more prolonged appetite suppressant effect”.

B1: oxm(xx15-24): human oxm with residues 15-24 replaced by corresponding exendin-4 residues (peptide)
chain 1: HSQGTFTSDYSKYLEEEAVRLFIEWLMNTKRNRNNIA
chain 2: HSQGTFTSDYSKYLEEEAVRLFIEWLMNTKRNRNNIA
As to B1, the food intake entry in test [1] (setting [5]) is “greater and more prolonged appetite suppressant effect; also recorded: more potent effect on feeding than oxm”; in test [1] (Example 2, 300 nmol/kg, 0-24 h, vs exendin 4 and saline) it was “reduces food intake only slightly less than exendin over the first 8 hours post-injection”; in test [1] (Example 27, 100 nmol/kg), “the most effective”.

B2: oxm(xx27-33): oxm with residues 27 to 33 replaced by the sequence Lys Asn Gly Gly Pro Ser Ser (peptide)
chain 1: HSQGTFTSDYSKYLDSRRAQDFVQWLKNGGPSSNNIA
chain 2: HSQGTFTSDYSKYLDSRRAQDFVQWLKNGGPSSNNIA
On to B2, for which the food intake entry in test [1] (Example 3, 2700 nmol/kg, 0-24 h, vs oxm and saline) is “increased and prolonged inhibition of food intake compared to both saline and oxm”.
